# Read-outs that look alike come from different tables or passages of the source.
# Experiments:
# [1] = test system: Staphylococcus aureus 8514; assay: bactericidal activity (germs still alive); type: cell-based; parameters: key to germs still alive: +++: all the germs are still alive; +: it remains some colonies; -: it does not remain any germ
# Experimental: (§1) The bactericidal activity of product A was ascertained by determining the number of germs still alive after treatment with increasing doses of antibiotic on a liquid media. From the cultures in tubes having 72 hours (previously described method), were placed on agar in Petri dishes a constant sample of the last tube having grown and of the following tubes where no more growth in transillumination is observed. After 48 hours of culture in the Petri dishes, the number of colonies was ascertained.
# [2] = test system: Staphylococcus aureus 54146; assay: bactericidal activity (germs still alive); type: cell-based; parameters: key to germs still alive: +++: all the germs are still alive; +: it remains some colonies; -: it does not remain any germ
# Experimental: as §1
# [3] = test system: Staphylococcus aureus 1098; assay: bactericidal activity (germs still alive); type: cell-based; parameters: key to germs still alive: +++: all the germs are still alive; +: it remains some colonies; -: it does not remain any germ
# Experimental: as §1
# Shigella sonnei = assay: bactericidal activity (germs still alive); type: cell-based; parameters: key to germs still alive: +++: all the germs are still alive; +: it remains some colonies; -: it does not remain any germ
# Experimental: as §1
# [4] = test system: Staphylococcus aureus 9482; assay: bactericidal activity (germs still alive); type: cell-based; parameters: key to germs still alive: +++: all the germs are still alive; +: it remains some colonies; -: it does not remain any germ
# Experimental: as §1
# solubility = type: physicochemical
# Escherichia coli 8497 = assay: MIC (Table II); type: cell-based; settings: read-out: minimum inhibition concentration
# Outline: (§2)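 Antibiotic activity measured by diffusion in gelose (agar) medium at pH 7. Values are the minimum inhibitory concentration in mcg/ml against each strain.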
# [5] = test system: Streptococcus hemolyticus 920; assay: MIC (Table II); type: cell-based; settings: Streptococcus pyogenes, read-out: minimum inhibition concentration
# Outline: as §2
# Proteus mirabilis 3113 = assay: MIC (Table II); type: cell-based; settings: read-out: minimum inhibition concentration
# Outline: as §2
# [6] = transcutaneous toxicity in rats; settings: rat, in vivo, topical or ocular, male rats
smiles,measurement,setting,value
"CC(C)C1=C(C(=O)O)N2C(=O)[C@@H](NC(=O)[C@H](N)c3ccccc3)[C@H]2SC1 [Example 9, L (+) cis 7-[D (-)-α-aminophenylacetamido]-3-isopropyl-3-cepheme-4-carboxylic acid]",germs still alive,[1]; 1 μg/ml,+++
same,germs still alive,[1]; 2 μg/ml,+++
same,number of colonies,[1]; 3 μg/ml,a few
same,germs still alive,[1]; 5 μg/ml,-
same,germs still alive,[2]; 1 μg/ml,+++
same,germs still alive,[2]; 2 μg/ml,+
same,number of colonies,[2]; 3 μg/ml,3 colonies
same,germs still alive,[2]; 5 μg/ml,-
same,germs still alive,[3]; 1 μg/ml,+++
same,germs still alive,[3]; 2 μg/ml,+++
same,number of colonies,[3]; 3 μg/ml,1 colonies
same,germs still alive,[3]; 5 μg/ml,-
same,germs still alive,Shigella sonnei; 20 μg/ml,+++
same,germs still alive,Shigella sonnei; 30 μg/ml,+
same,number of colonies,Shigella sonnei; 40 μg/ml,9 colonies
same,germs still alive,Shigella sonnei; 60 μg/ml,-
same,germs still alive,[4]; 1 μg/ml,+++
same,number of colonies,[4]; 2 μg/ml,1 colonie
same,number of colonies,[4]; 3 μg/ml,2 colonies
same,germs still alive,[4]; 5 μg/ml,-
same,solubility in ethanol,solubility; ethanol,slightly soluble
same,solubility in ether,solubility; ether,insoluble
same,MIC,Escherichia coli 8497; 24h,100 µg/mL
same,MIC,Escherichia coli 8497; 48h,100 µg/mL
same,MIC,Escherichia coli 8497; 72h,100 µg/mL
same,MIC,[5]; 24h,2 µg/mL
same,MIC,[5]; 48h,2 µg/mL
same,MIC,[5]; 72h,3 µg/mL
same,MIC,Proteus mirabilis 3113; 24h,100 µg/mL
same,MIC,Proteus mirabilis 3113; 48h,> 100 µg/mL
same,LD50 at 192 h,[6],> 1600 mg/kg

# — patent publication US4016158A, “Cephalosporin derivatives” (Roussel-UCLAF, priority 1971, dated 1977)
